Here are results for one compound from patent publication US20220390432A1, “METHODS OF CHARACTERIZING AND UTILIZING AGENT-CONDENSATE INTERACTIONS” (Whitehead Institute for Biomedical Research, priority 2019, published 2022).

The target in one data set is T1, MED1 droplets (Homo sapiens, UniProt Q15648).
T1 construct: MED1—amino acids 600-1581; 6xHis (N); made in house; host or cells: LOBSTR cells (E. coli)
The experiment in a line: In vitro droplet drug chase out experiment. It is filed as binding. As to conditions: 5 μM cisplatin-TR, 10 μM MED1, unlabeled compound 10, 100 or 500 μM. How it is done: For chase-out experiments 5 μM labeled cisplatin-TR was added to a MED1 droplets reaction (10 μM MED1, 50 mM Tris-HCl pH 7.5, 10% glycerol, 1 mM DTT, 10% PEG) in order to form MED1 droplets concentrated with Cisplatin-TR. Unlabeled transplatin or unlabeled cisplatin (vehicle, 10 μM, 100 μM, or 500 μM) were added to the droplet mixture and the amount of labeled cisplatin-TR remaining in the droplet is measured after chase out. 100 μM fluorescent FLTX1 was added to a MED1 droplets reaction (10 μM MED1, 50 mM Tris-HCl pH 7.5, 10% glycerol, 1 mM DTT, 10% PEG) in order to form MED1 droplets concentrated with FLTX1.

The test system of data set [1] is platinated DNA in HCT116 cells. Put plainly: Cisplatin/condensate co-immunofluorescence. As to conditions: HCT116, 50 μM cisplatin for 6 hours. It is filed as cell-based, human. How it is done: HCT116 cells were plated in 24-well plate at 50 k cells per well to yield 100 k cells after 21 hours (doubling time of HCTs). Cells were permeabilized using a solution of Tx100 in media at 0.55 pmol/cell for 12 minutes at 37° C. Cells were then washed with 500 ul media and treated with 500 ul of 50 uM cisplatin in media for 6 hours. After 6 hours, the cells were washed once with room temperature PBS and then fixed with 500 uL 4% formaldehyde in PBS for 12 min at room temperature. The cells were then washed 3 more times with PBS. Coverslips were put into a humidifying chamber or stored at 4° C. in PBS. Permeabilization of cells were performed using 0.5% Triton X-100 (Sigma Aldrich, X100) in PBS for 10 minutes followed by three PBS washes. Cells were blocked with 4% IgG-free Bovine Serum Albumin, BSA, (VWR, 102643-516) for 30 minutes and the primary antibody was added at a concentration of 1:500 in PBS for 4-16 hours. […]
For the analysis of co-immunofluorescence data, custom python scripts were written to both process and analyze the 3D image data from IF and DAPI channels. Nuclei were detected using the Triangle thresholding method and a nuclear mask was applied the IF channels. […] Percentage of cisplatin overlap was calculated by the number of defined nuclear cisplatin puncta that overlapped with the protein of interest puncta divided by the total number of nuclear cisplatin puncta.

The nature of data set [2]: Droplet formation assay of small molecule alone without any protein. As to conditions: without any protein added. The class given is physicochemical. How it is done:
Recombinant BFP, GFP, or mCherry fusion proteins were concentrated and desalted to an appropriate protein concentration and 125 mM NaCl using Amicon Ultra centrifugal filters (30K MWCO, Millipore). […] […] The protein solution was immediately loaded onto glass bottom 384 well plate (Cellvis P384-1.5H-N) and imaged with an Andor confocal microscope with a 150× objective. Unless indicated, images presented are of droplets settled on the glass coverslip.

The next data set deals with T2, MED1 condensates (Homo sapiens, UniProt Q15648).
T2 construct: MED1—amino acids 600-1581; 6xHis (N); made in house; host or cells: LOBSTR cells (E. coli)
The experiment in a line: Determination of partitioning by spectrophotometry and quantitative phase microscopy. The class given is binding. The source says: Here, an expression is derived briefly for the partition coefficient of a client molecule into a condensed phase in terms of quantities that are readily measurable experimentally. A sample composed of two coexisting phases is considered, named dilute and condensed, with volume fractions ϕdilute and […]. If a client molecule (e.g. a drug) is also present in the sample at an average concentration of ctotal, then mass conservation requires that
the ratio is estimated ctotal/cdilute from fluorescence spectroscopy measurements, as described in a subsequent section, while ϕcond, it is inferred from the lever rule (M. Rubinstein, R. H. Colby, Polymer Phyics (Oxford University Press, 2003) as follows: denoting the concentration of scaffold protein (e.g. MED1) by s, mass conservation gives stotal=sdiluteϕdilute+scondϕcond, in analogy with Eq. 1. Again using the requirement that the volume fractions of coexisting phases sum to 1, this can be rearranged to yield
where stotal and sdilute are measured spectrophotometrically from optical absorbance at 280 nm, and scond is measured from quantitative phase microscopy, using a coherence-controlled holographic microscope (Q-Phase, Telight (formerly TESCAN), Bmo, CZ) equipped with 40× dry objectives (NA=0.90). […]
where A is the measured absorbance (in Absorbance Units (AU)), I0 is the intensity of the incident light at a given wavelength, I is the transmitted intensity, L the path length through the sample, and c the concentration of the absorbing species. […] The partitioned drug was measured by using spin down assay. […] The supernatant was collected and measured the concentrations of the drug. The partitioned drug was calculated by subtracting from the total known concentration of drug added.
Quantitative phase measurements were performed using a coherence-controlled holographic microscope (Q-Phase, Telight (formerly TESCAN), Brno, CZ) equipped with 40× dry objectives (NA=0.90) as follows. […]
Q-PHASE software was used to construct compensated phase images from acquired holograms, which were subsequently analyzed in MATLAB using custom code. […]

T2 sequence (Q15648 600-1581): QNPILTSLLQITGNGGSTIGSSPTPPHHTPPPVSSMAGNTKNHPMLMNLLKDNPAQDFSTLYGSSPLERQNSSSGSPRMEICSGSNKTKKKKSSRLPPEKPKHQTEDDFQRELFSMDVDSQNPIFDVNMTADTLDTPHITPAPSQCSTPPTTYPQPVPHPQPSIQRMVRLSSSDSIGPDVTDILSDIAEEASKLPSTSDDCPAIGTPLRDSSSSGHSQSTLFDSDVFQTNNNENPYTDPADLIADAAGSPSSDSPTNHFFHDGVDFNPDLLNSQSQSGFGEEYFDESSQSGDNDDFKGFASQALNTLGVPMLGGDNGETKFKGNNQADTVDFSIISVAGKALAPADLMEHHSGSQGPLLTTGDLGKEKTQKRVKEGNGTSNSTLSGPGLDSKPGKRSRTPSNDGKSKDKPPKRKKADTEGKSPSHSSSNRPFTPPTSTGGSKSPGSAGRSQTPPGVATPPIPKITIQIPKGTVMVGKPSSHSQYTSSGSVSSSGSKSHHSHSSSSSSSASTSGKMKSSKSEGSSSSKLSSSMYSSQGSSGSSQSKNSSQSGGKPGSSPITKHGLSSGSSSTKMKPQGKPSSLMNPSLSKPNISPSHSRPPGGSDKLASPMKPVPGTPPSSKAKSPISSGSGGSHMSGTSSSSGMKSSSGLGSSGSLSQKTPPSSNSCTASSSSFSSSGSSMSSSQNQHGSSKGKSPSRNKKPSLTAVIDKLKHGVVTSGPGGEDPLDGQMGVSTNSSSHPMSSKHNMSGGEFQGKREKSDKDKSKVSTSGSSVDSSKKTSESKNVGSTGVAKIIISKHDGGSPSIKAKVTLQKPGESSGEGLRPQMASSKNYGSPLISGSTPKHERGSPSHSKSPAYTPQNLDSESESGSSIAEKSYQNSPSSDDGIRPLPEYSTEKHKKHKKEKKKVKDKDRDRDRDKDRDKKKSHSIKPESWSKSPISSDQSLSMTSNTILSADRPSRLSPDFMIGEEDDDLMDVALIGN
T1 sequence (Q15648 600-1581): as above

For the compound `N.N.[Cl][Pt][Cl]` [cisplatin], the entries for the “chase out of cisplatin-TR from MED1 droplets by unlabeled compound” value on MED1 droplets (listed as unlabeled cisplatin) and at MED1 droplets (listed as unmodified cisplatin) were “able to chase out cisplatin-TR” and “could be chased out of the condensate”, respectively. Moreover, the “colocalization of platinated DNA with nuclear condensates” value in data set [1] is “frequently colocalized with MED1 condensates, but not with HP1α or FIB1 condensates”. The “droplet formation of small molecule alone” value in data set [2] is reported as “diffuse fluorescent signal”. Also, the “partition coefficient in MED1 droplets” value on MED1 condensates is on record as “up to 600”. Moreover, the “partition ratio in MED1 condensates” value at MED1 condensates (uv spectroscopy of drug remaining in solution plus condensate volume estimate) is “up to 600 fold”.
